Data on two compounds can be found in publication PMC9328652, “A novel class of fast‐acting antimalarial agents: Substituted 15‐membered azalides” (British Journal of Pharmacology, 2020).

By IC50 is commonly meant the concentration that inhibits the measured activity by half.

Data set [1] concerns Plasmodium falciparum 3D7A (sensitive). More on the design: method as in Pesic et al. ([2012]). Conditions: 72 h of incubation; ref Pesic et al. ([2012]); cited from earlier work.
In a further data set the test system is human erythrocytes. Nature of the data set: Accumulation and retention in human erythrocytes. The format is in vitro ADME. Particulars: after washout. As for the experimental part:
The human biological samples were sourced ethically, and their research use was in accord with the terms of the informed consents under an IRB/EC approved protocol. Human erythrocytes were isolated from fresh whole blood. Blood cells were removed from the plasma by centrifugation at 1,650 g and 4°C for 15 min. The pellet was re‐suspended in saline and centrifuged at 3,000 g and at room temperature for 10 min. Supernatant and the upper part of pellet containing leukocytes were discarded. The procedure was repeated three to four times until there were no traces of leukocytes. The quality of erythrocyte isolation was determined on Sysmex SF‐3000 haematological analyser. To measure compound accumulation in cells, erythrocytes (2 × 10^9) were re‐suspended in 3‐ml RPMI 1640 (Gibco, Invitrogen) medium containing 20 μM of tested compounds and incubated at 37°C for 3 or 24 h. Cells were subsequently washed twice in ice‐cold PBS (Sigma) followed by centrifugation at 3,000 g and 4°C for 10 min. The cells were lysed by freezing in 0.5% Triton X‐100 (Sigma) in deionized water. […] Concentrations in lysates were determined by LC–MS/MS. […] To determine intracellular concentration, measured concentration in lysates was normalized to the volume of erythrocyte pellet in samples.

The subject of data set [2] is monocyte derived macrophages (MDM). Nature of the data set: Accumulation and retention in human primary cells, MDM. The format is in vitro ADME. Particulars: mean (SD). As for the experimental part:
(§1) Accumulation and retention in human primary cells was determined as described in detail previously (Stepanic et al., [2011]). Briefly, normal human bronchial epithelial cells (NHBE, CC‐2541, Lonza), normal human lung fibroblasts (NHLF, CC‐2512, Lonza), and bronchial smooth muscle cells (BSMC, CC‐2576, Lonza) were cultivated according to the protocols of the suppliers. Human polymorphonuclear cells (PMN) and monocytes from healthy volunteers were isolated from buffy coats. Monocytes were isolated by negative selection on magnetic separator. Monocyte‐derived macrophages (MDM) were obtained by cultivating monocytes with 5 ng·ml^−1 rhGMCSF for 10 days. To determine compound accumulation cells were incubated with 3–10 μM of compounds in their corresponding culture medium for 3 h at 37°C in 5% CO2, washed, and lysed. To measure cellular retention of compounds, after being washed, drug‐loaded cells were incubated in fresh medium for 3 h, washed, and lysed. Compound concentrations were determined by HPLC–MS/MS analysis and expressed as % of azithromycin measurements.

For data set [3], the system named is bronchial smooth muscle cells (BSMC). Nature of the data set: Accumulation and retention in human primary cells, BSMC. The format is in vitro ADME. Conditions: mean (SD). As for the experimental part:
as §1

The test system of data set [4] is Polymorphonuclear leukocytes (PMN). Nature of the data set: Accumulation and retention in human primary cells, PMN. The format is in vitro ADME. Particulars: mean (SD). As for the experimental part:
as §1

With `CC[C@H]1OC(=O)[C@H](C)[C@@H](O[C@H]2C[C@@](C)(OC)[C@@H](O)[C@H](C)O2)[C@H](C)[C@@H](O[C@@H]2O[C@H](C)C[C@H](N(C)C)[C@H]2O)[C@](C)(O)C[C@@H](C)CN(C)[C@H](C)[C@@H](O)[C@]1(C)O` [Azithromycin, reference compound], the IC50 in data set [1] was 11.5 µM. The “initially accumulated amount retained in the erythrocytes” value with human erythrocytes is 10%.
In the case of `CC[C@H]1OC(=O)[C@H](C)[C@@H](O[C@H]2C[C@@](C)(OC)[C@@H](O)[C@H](C)O2)[C@H](C)[C@@H](O[C@@H]2O[C@H](C)C[C@H](N(C)C)[C@H]2O)[C@](C)(O)C[C@@H](C)CN(CCCNc2ccnc3cc(Cl)ccc23)[C@H](C)[C@@H](O)[C@]1(C)O` [Compound 1], the accumulation is recorded as 118 (21) % azithromycin in data set [2] (3 h), 148 (77) % azithromycin in data set [3] (3 h) and 127 (36) % azithromycin in data set [4] (3 h). The retention in data set [2] (3 h in fresh medium) was 94 (0) % azithromycin; in data set [3] (3 h in fresh medium), 118 (19) % azithromycin; in data set [4] (3 h in fresh medium) it was 101 (19) % azithromycin.
